Assay results: patent US20240158348A1, “HERBICIDAL CYCLIC AMIDES N-SUBSTITUTED WITH A HALOALKYLSULFONYLANILIDE GROUP” (FMC Corporation, priority 2021, published 2024)

How the values were obtained:
rice (Oryza sativa) = assay: Test B flooded paddy test, rice; type: in vivo; settings: 250 g ai/ha, Flood, scale of 0 to 100 where 0 is no effect and 100 is complete control, visually evaluated after 10 to 14 days, read-out: Plant response rating, Rice
Protocol: (§1) Plant species in the flooded paddy test selected from barnyardgrass (Echinochloa crusgalli), ducksalad (Heteranthera limosa), rice (Oryza sativa), and sedge, umbrella (small-flower umbrella sedge, Cyperus difformis) were grown to the 2-leaf stage for testing. At time of treatment, test pots were flooded to 3 cm above the soil surface, treated by application of test compounds directly to the paddy water, and then maintained at that water depth for the duration of the test. Treated plants and controls were maintained in a greenhouse for 10 to 14 days, after which time all species were compared to controls and visually evaluated. Plant response ratings, summarized in Table B, are based on a scale of 0 to 100 where 0 is no effect and 100 is complete control. A dash (-) response means no test result.

[1] = test system: sedge, umbrella (small-flower umbrella sedge, Cyperus difformis); assay: Test B flooded paddy test, umbrella sedge; type: in vivo; settings: 250 g ai/ha, Flood, scale of 0 to 100 where 0 is no effect and 100 is complete control, visually evaluated after 10 to 14 days, read-out: Plant response rating, Sedge, Umbrella
Protocol: as §1

[2] = test system: oat, wild (wild oat, Avena fatua); assay: Test A postemergence, wild oat; type: in vivo; settings: 0 to 100 scale, 10 days
Description: (§2) Seeds of plant species selected from barnyardgrass (Echinochloa crus-galli), blackgrass (Alopecurus myosuroides), corn (Zea mays), foxtail, giant (giant foxtail, Setaria faberi), goosegrass (Eleusine indica), kochia (Bassia scoparia), oat, wild (wild oat, Avena fatua), pigweed, palmer (palmer amaranth, Amaranthus palmeri), pigweed, redroot (redroot pigweed, Amaranthus retroflexus), ragweed (common ragweed, Ambrosia artemisiifolia), ryegrass, Italian (Italian ryegrass, Lolium multiflorum), soybean (Glycine max), and wheat (Triticum aestivum) were planted into a blend of loam soil and sand and treated preemergence with a directed soil spray using test chemicals formulated in a non-phytotoxic solvent mixture which included a surfactant.
(§3) At the same time, plants selected from these crop and weed species and also galium (catchweed bedstraw, Galium aparine) and horseweed (Erigeron canadensis) were planted in pots containing the same blend of loam soil and sand and treated with postemergence applications of test chemicals formulated in the same manner. Plants ranged in height from 2 to 10 cm and were in the one- to two-leaf stage for the postemergence treatment. Treated plants and untreated controls were maintained in a greenhouse for 10 days, after which time all treated plants were compared to untreated controls and visually evaluated for injury. Plant response ratings, summarized in Table A, are based on a 0 to 100 scale where 0 is no effect and 100 is complete control. A dash (-) response means no test result.

[3] = test system: ragweed (common ragweed, Ambrosia artemisiifolia); assay: Test A postemergence, ragweed; type: in vivo; settings: post-emergence, 240 h, 0 to 100 scale, 10 days, read-out: Plant response rating, Ragweed
Description: as §2, §3

[4] = test system: horseweed (Erigeron canadensis); assay: Test A postemergence, horseweed; type: in vivo; settings: 0 to 100 scale, 10 days
Description: as §2, §3

kochia (Bassia scoparia) = assay: Test A postemergence, kochia; type: in vivo; settings: post-emergence, 240 h, 0 to 100 scale, 10 days, read-out: Plant response rating, Kochia
Description: as §2, §3

[5] = test system: foxtail, giant (giant foxtail, Setaria faberi); assay: Test A postemergence, giant foxtail; type: in vivo; settings: post-emergence, 240 h, 0 to 100 scale, 10 days, read-out: Plant response rating, Foxtail, Giant
Description: as §2, §3

[6] = test system: galium (catchweed bedstraw, Galium aparine); assay: Test A postemergence, galium; type: in vivo; settings: post-emergence, 240 h, 0 to 100 scale, 10 days, read-out: Plant response rating, Galium
Description: as §2, §3

[7] = test system: barnyardgrass (Echinochloa crusgalli); assay: Test B flooded paddy test, barnyardgrass; type: in vivo; settings: Echinochloa crus-galli; 250 g ai/ha, Flood; scale of 0 to 100 where 0 is no effect and 100 is complete control; visually evaluated after 10 to 14 days; read-out: Plant response rating, Barnyardgrass
Protocol: as §1

[8] = test system: oat, wild (wild oat, Avena fatua); assay: Test A preemergence, wild oat; type: in vivo; settings: 0 to 100 scale, 10 days
Description: as §2, §3

[9] = test system: ducksalad (Heteranthera limosa); assay: Test B flooded paddy test, ducksalad; type: in vivo; settings: 250 g ai/ha, Flood, scale of 0 to 100 where 0 is no effect and 100 is complete control, visually evaluated after 10 to 14 days, read-out: Plant response rating, Ducksalad
Protocol: as §1

Cc1cc(C)c(N2CCC(OC3CCC3)C2=O)cc1NS(=O)(=O)C(F)(F)F (stereo not shown) [Compound 4, N-[5-[3-(cyclobutyloxy)-2-oxo-1-pyrrolidinyl]-2,4-dimethylphenyl]-1,1,1-trifluoromethanesulfonamide]
melting point: 166 to 169 °C | plant injury at 250 g/ha (rice (Oryza sativa)): 0% | pest or weed control at 250 g/ha [1]: 100% | Plant response rating, Oat, Wild ([2]; 31 g ai/ha): 30 | Plant response rating, Oat, Wild ([2]; 125 g ai/ha): 60 | pest or weed control at 31 g/ha ([3]; 31 g ai/ha): 70% | pest or weed control at 125 g/ha ([3]; 125 g ai/ha): 90% | Plant response rating, Horseweed ([4]; 31 g ai/ha): 90 | Plant response rating, Horseweed ([4]; 125 g ai/ha): 100 | pest or weed control at 31 g/ha (kochia (Bassia scoparia); 31 g ai/ha): 60% | pest or weed control at 125 g/ha (kochia (Bassia scoparia); 125 g ai/ha): 90% | pest or weed control at 31 g/ha ([5]; 31 g ai/ha): 40% | pest or weed control at 125 g/ha ([5]; 125 g ai/ha): 80% | pest or weed control at 31 g/ha ([6]; 31 g ai/ha): 100% | pest or weed control at 125 g/ha ([6]; 125 g ai/ha): 100% | pest or weed control at 250 g/ha [7]: 45% | Plant response rating, Oat, Wild ([8]; 31 g ai/ha): 80 | Plant response rating, Oat, Wild ([8]; 125 g ai/ha): 100 | pest or weed control at 250 g/ha [9]: 100%
